“And” between values parts separate entries of the source, which are not always exact repeats. Identical values can stand only once. The source made the active and inactive calls.
Tests used:
[1] = HEp-2 cell cytotoxicity, dose response, cytotoxicity control for RSV inhibitor project, HTS (AID 2410); assay type: functional; details: human respiratory syncytial virus
[2] = biological target: Cytochrome P450 2C9 (Homo sapiens, UniProt P11712)
[3] = biological target: T1, Cytochrome P450 1A2 (Homo sapiens, UniProt P05177);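 note: PubChem cytochrome P450 panel assay, CYP1A2 panel member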
T1 sequence (P05177 whole entry): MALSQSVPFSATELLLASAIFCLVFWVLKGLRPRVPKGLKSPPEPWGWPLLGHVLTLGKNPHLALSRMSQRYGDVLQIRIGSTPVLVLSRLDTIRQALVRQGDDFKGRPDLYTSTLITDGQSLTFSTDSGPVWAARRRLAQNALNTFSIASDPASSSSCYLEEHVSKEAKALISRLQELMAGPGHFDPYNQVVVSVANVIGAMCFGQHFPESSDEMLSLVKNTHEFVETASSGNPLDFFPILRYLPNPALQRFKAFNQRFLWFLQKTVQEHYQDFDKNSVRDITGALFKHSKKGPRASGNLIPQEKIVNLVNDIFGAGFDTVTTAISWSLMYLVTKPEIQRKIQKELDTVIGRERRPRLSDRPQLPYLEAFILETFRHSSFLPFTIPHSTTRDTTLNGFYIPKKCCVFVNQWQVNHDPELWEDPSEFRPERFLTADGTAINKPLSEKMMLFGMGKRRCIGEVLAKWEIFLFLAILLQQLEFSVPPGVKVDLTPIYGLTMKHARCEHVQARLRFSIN

[4] = Luminescence Cell-Based Dose Confirmation HTS to Identify Activators of 5'UTR Stem-Loop Driven Alpha-Synuclein mRNA Translation in H4 Neuroglioblastoma Cells. [Related pubchem assays: 1829 (Project Summary), 1814 (Primary HTS)]; assay type: functional
[5] = Luminescence Cell-Based Dose Response HTS to Identify Activators of Luciferase Translation or Activity in H4 […] Cells. [Related pubchem assays: 1829 (Project Summary), 1814 (Primary HTS)]; assay type: functional
[6] = test system: H4; test: Luminescence Cell-Based Dose Response HTS to Identify Activators of 5'UTR Stem-Loop Driven Prion Protein mRNA Translation in H4 Neuroglioblastoma Cells. [Related pubchem assays: 1829 (Project Summary), 1814 (Primary HTS)]; assay type: functional; details: Homo sapiens
[7] = inhibitors of SNCA 5'UTR-driven reporter translation, confirmation, H4 neuroglioma cells, luminescence (AID 1988); assay type: functional, cell-based
[8] = Luminescence Cell-Based Dose Response HTS to Identify Inhibitors of 5'UTR Stem-Loop Driven Prion Protein mRNA Translation in H4 Neuroglioblastoma Cells. [Related pubchem assays: 1827 (Project Summary), 1813 (Primary HTS)]; assay type: functional
[9] = inhibitors of firefly luciferase expression or activity, dose response, H4 neuroglioma cells, luminescence (AID 1990); assay type: functional, cell-based
[10] = biological target: Cytochrome P450 2C19 (Homo sapiens, UniProt P33261); test: Cytochrome panel assay with activity outcomes. Panel member name: p450-cyp2c19 Compounds with AC50 equal or less than 10 uM are considered active; assay type: functional
Chain of Cytochrome P450 2C19 (P33261 whole entry): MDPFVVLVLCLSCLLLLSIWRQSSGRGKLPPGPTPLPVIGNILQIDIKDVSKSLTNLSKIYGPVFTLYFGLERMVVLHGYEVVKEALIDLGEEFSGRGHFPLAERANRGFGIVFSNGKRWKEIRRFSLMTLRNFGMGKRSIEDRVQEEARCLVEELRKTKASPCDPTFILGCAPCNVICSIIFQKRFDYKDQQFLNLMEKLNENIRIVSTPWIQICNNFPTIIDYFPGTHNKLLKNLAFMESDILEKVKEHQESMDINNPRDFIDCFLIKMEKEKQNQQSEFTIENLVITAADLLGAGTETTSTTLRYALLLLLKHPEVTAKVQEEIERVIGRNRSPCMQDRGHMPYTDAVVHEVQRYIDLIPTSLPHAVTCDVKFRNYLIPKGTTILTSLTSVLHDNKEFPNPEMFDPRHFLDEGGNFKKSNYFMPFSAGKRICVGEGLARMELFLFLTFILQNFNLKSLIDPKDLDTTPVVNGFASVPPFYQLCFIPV

[11] = biological target: T2, Replicative DNA helicase DnaB (Mycobacterium tuberculosis, UniProt P9WMR3); test: DnaB intein splicing inhibitors, dose response, biochemical, cell-free fluorescence (AID 449749); assay type: functional
T2 sequence (P9WMR3 whole entry): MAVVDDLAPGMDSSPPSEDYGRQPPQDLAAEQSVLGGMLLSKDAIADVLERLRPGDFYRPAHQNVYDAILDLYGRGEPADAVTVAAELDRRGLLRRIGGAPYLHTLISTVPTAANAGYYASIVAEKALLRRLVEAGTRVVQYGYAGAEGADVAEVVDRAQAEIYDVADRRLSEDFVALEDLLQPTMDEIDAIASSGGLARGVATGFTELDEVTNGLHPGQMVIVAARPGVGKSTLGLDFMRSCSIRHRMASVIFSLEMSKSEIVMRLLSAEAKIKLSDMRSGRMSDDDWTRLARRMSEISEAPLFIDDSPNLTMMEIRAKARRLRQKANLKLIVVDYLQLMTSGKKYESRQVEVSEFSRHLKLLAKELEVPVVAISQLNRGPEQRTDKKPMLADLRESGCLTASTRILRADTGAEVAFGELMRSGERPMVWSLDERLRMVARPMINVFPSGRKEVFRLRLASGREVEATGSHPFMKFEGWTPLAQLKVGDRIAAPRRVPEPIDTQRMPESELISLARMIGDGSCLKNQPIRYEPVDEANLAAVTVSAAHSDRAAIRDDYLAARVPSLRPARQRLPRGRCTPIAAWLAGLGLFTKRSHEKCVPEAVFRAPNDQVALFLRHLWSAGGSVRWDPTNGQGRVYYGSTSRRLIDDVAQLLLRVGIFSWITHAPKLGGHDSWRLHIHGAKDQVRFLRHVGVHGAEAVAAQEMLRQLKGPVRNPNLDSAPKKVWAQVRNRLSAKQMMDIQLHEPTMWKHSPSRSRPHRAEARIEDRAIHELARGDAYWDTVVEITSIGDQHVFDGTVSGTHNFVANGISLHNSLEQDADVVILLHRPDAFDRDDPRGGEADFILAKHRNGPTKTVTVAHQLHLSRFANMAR

[12] = biological target: T3, Protein RecA (Mycobacterium tuberculosis, UniProt P9WHJ3); test: Fluorescence Cell-Free Homogeneous Dose Retest to Identify Inhibitors of RecA-Intein Splicing Activity. [Related pubchem assays (depositor defined):AID2097, AID2223, AID489010, AID492950]; assay type: functional
T3 sequence (P9WHJ3 whole entry): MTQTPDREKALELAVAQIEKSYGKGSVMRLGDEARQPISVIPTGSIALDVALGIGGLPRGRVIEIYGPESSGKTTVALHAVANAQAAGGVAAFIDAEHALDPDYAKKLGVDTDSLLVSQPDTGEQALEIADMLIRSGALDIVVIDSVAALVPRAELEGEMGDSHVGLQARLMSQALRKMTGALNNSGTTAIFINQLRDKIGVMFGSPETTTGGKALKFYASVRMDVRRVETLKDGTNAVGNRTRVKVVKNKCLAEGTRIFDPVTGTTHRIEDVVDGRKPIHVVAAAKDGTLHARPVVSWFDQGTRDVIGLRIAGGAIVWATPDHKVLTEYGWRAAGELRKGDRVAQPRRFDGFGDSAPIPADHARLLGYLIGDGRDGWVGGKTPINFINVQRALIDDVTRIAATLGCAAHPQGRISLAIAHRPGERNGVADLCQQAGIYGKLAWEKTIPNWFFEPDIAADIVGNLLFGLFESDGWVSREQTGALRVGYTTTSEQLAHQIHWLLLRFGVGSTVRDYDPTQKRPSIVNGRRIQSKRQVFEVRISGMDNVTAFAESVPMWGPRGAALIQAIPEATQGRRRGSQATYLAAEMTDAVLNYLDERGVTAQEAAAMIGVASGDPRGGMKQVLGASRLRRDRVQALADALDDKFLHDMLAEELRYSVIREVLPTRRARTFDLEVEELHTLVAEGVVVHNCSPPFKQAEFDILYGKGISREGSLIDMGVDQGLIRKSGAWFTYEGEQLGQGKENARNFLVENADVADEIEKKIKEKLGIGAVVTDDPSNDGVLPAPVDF

[13] = biological target: Cytochrome P450 3A4 (Homo sapiens, UniProt P08684);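 note: CYP3A4 tested as one member of a cytochrome P450 panel screen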
Chain of Cytochrome P450 3A4 (P08684 whole entry): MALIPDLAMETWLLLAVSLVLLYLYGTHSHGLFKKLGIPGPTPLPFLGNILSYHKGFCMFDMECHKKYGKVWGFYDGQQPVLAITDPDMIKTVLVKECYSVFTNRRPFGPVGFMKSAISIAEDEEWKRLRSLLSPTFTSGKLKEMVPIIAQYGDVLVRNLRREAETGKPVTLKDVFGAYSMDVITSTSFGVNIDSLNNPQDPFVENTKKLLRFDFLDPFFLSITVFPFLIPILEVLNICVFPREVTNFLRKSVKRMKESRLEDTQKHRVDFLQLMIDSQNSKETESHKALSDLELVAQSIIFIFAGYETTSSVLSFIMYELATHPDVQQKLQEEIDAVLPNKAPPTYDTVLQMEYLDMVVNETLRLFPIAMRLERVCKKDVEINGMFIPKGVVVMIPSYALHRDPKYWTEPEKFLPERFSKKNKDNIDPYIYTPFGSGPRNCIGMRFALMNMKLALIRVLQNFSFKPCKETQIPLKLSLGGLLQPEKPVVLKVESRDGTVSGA

[14] = control 3'UTR Renilla luciferase suppression, dose response, counter-screen for Shn3 inhibitor project, cell-based, Clone20-Shn3RL, cherry-picked (AID 624133); assay type: functional
[15] = Luminescence Cell-Based Dose Retest to Confirm Inhibitors of Cancer Stem Cells. [Related pubchem assays (depositor defined):AID2717, AID2721]; assay type: functional; details: Homo sapiens

Chain of Cytochrome P450 2C9 (P11712 whole entry): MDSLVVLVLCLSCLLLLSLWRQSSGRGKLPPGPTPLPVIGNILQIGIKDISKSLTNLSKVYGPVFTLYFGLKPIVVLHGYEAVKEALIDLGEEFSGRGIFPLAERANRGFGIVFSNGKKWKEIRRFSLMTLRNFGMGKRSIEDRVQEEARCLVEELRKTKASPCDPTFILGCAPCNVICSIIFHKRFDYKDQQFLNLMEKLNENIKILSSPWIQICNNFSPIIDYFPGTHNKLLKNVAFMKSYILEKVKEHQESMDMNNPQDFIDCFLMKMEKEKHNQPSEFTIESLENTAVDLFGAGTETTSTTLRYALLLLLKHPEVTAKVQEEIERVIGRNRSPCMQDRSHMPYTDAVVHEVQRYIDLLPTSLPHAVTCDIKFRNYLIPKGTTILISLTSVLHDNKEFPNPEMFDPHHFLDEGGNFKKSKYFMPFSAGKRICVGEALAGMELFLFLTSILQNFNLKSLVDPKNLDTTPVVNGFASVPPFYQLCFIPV

## CC(=O)Nc1ccc(S(=O)(=O)N2CCC(c3nc4cc(C)ccc4[nH]3)CC2)cc1
[1]
  CC50: 15.4 µM (active)

## C=CCNC(=O)/C(=C\c1ccc2c(c1)OCO2)NC(=O)c1ccc(Br)cc1
[2]
  AC50: 5.62 µM (inconclusive)
[3]
  AC50: 14.1 µM (inconclusive)

## Cc1cc(NS(=O)(=O)c2ccccc2)c(C)c(Cl)c1O
[1]
  CC50: 8.98 µM (active)

## CC(=O)c1c(C)[nH]c(C(=O)CSc2ccc(F)cc2)c1C
[4]
  EC50: 20 µM (active)
[5]
  EC50: 30.2 µM (active)
[6]
  EC50: 71.1 µM (active)

## COc1ccc(N(C)C(=O)c2cc3c(s2)-c2ccccc2OC3)c(OC)c1
[1]
  CC50: 48.3 µM (active)

## COC(=O)c1ccc(S(=O)(=O)N2CCc3ccccc32)cc1
[4]
  EC50: > 120 µM (not active)
[5]
  EC50: > 60 µM (not active)
[6]
  EC50: > 120 µM (not active)

## CCC/C=C(\CCC)C(NC(=O)c1ccc(C(F)(F)F)cc1)c1ccccc1 (centres undefined)
[2]
  AC50: 3.16 µM (inconclusive)
[3]
  AC50: 25.1 µM (inconclusive)

## N#CC1CCCc2c1[nH]c1ccc([N+](=O)[O-])cc21 (centres undefined)
[7]
  EC50: 24.5 µM (active)
[8]
  EC50: > 120 µM (not active)
[1]
  CC50: 27.8 µM (active)
[9]
  EC50: 11.7 µM (active)

## Cn1c(=O)c(-c2cccs2)nc2cnc(N3CCOCC3)nc21
[3]
  AC50: 5.01 µM (inconclusive)

## COc1ccc(/C=C2\SC(=S)N(Cc3cccnc3)C2=O)cc1C
[4]
  EC50: 38 µM (active)
[5]
  EC50: 11.1 µM (active)
[6]
  EC50: 20.1 µM (active)

## O=C(CCN1C[C@H]2CC[C@H](CC2)C1)c1cccs1
[3]
  AC50: 5.01 µM (inconclusive)

## O=[N+]([O-])C(/C=C(\Cl)[N+](=O)[O-])=C1N(Cc2ccc(Cl)nc2)CCN1Cc1ccc(Cl)nc1
[2]
  AC50: 12.6 µM (inconclusive)
[10]; read-out: AC50
  AC50: 31.6 µM (inconclusive)
[11]
  AC50: 11.4 µM (active)
[12]
  EC50: 8.49 µM (active)

## O=C(Oc1ccccc1N1C(=O)CCC1=O)c1ccco1
[11]
  AC50: 6.7 µM (active)
[12]
  EC50: 14.8 µM (active)

## Cc1ccc(C(=O)NC(=S)N2CC(C)OC(C)C2)cc1[N+](=O)[O-] (centres undefined)
[2]
  AC50: 14.1 µM (inconclusive)
[3]
  AC50: 15.8 µM (inconclusive)
[13]
  AC50: 22.4 µM (inconclusive)
[10]
  AC50: inconclusive

## C=CCN1C[C@H](C)N([C@@H](c2ccccc2)c2ccc(C(=O)N(CC)CC)cc2)C[C@H]1C
[2]
  AC50: 31.6 µM (inconclusive)
[3]
  AC50: 31.6 µM (inconclusive)
[13]
  AC50: 2.51 µM (inconclusive)
[10]; read-out: AC50
  AC50: 0.0631 µM (inconclusive)

## Cc1ccc(C(=O)C2=C(O)C(=O)N(Cc3cccnc3)C2c2ccccc2[N+](=O)[O-])cc1 (centres undefined)
[4]
  EC50: 30.1 µM (active)
[5]
  EC50: 14.9 µM (active)
[6]
  EC50: > 120 µM (not active)

## CN1CCc2nc(SCC(=O)OC(C)(C)C)c(C#N)cc2C1
[4]
  EC50: 20.8 µM (active)
[5]
  EC50: 15.4 µM (active)
[6]
  EC50: 108 µM (active)

## COc1ccc(OCc2cc(C(=O)N3CCCC(OC)C3)no2)c2ccccc12 (centres undefined)
[11]
  AC50: 15 µM (active)
[12]
  EC50: 3.9 µM (active)

## Cc1ccc(S(=O)(=O)Oc2cc(S(=O)(=O)O)cc3cc(S(=O)(=O)O)cc(N)c23)cc1
[3]
  AC50: 2 µM (inconclusive)

## Nc1cccc(OCc2nc(N)nc(N)c2-c2ccc(Cl)cc2)c1
[3]
  AC50: 0.158 µM (inconclusive)

## Cc1nn(-c2ccc(N3CCCCC3)nn2)c(C)c1CCC(=O)Nc1cccc(F)c1
[4]
  EC50: 20.8 µM (active)
[5]
  EC50: 2.66 µM (active)

## Cc1cccc(-n2c(N)c(C(=O)NCCN3CCOCC3)c3nc4ccccc4nc32)c1
[4]
  EC50: > 120 µM (not active)
[5]
  EC50: > 120 µM (not active)
[6]
  EC50: > 120 µM (not active)

## CCCCN1CC(=O)C(c2nc3ccccc3s2)=C1N
[4]
  EC50: 13.8 µM (active)
[5]
  EC50: 30.8 µM (active)
[6]
  EC50: > 120 µM (not active)

## C=CCNc1nc(-c2ccc(OC)cc2OC)cs1
[4]
  EC50: 0.287 µM (active)
[5]
  EC50: 26.8 µM (active)
[6]
  EC50: 53.9 µM (active)

## CC(C)N1CCN(Cc2c[nH]c3ccccc23)CC1CCO (centres undefined)
[14]
  AC50: 28.6 µM (active)

## CN1CCC(c2c[nH]c3ccc(O)cc23)CC1
[3]
  AC50: 31.6 µM (inconclusive)
[13]
  AC50: 15.8 µM (inconclusive) and 31.6 µM (inconclusive)

## CCOC(=O)c1c(C)sc2c1N(C(=O)CCl)c1cc(Cl)ccc1S2
[11]
  AC50: 3.1 µM (active)
[12]
  EC50: 0.506 µM (active)
[15]
  AC50: 2.22 µM (active)

## Cc1cn(CCC(=O)Nc2ccc(N3CCOCC3)cc2)c2ccccc12
[4]
  EC50: 11.5 µM (active)
[5]
  EC50: 16.1 µM (active)
[6]
  EC50: 13.9 µM (active)

## C/C(=N/OCC(=O)Nc1ccccc1)c1cccs1
[4]
  EC50: 13.4 µM (active)
[5]
  EC50: 26.4 µM (active)
[6]
  EC50: 16.8 µM (active)

## Fc1cccc2sc(Nc3nc4ccccc4s3)nc12
[4]
  EC50: 0.106 µM (active)
[5]
  EC50: 4.21 µM (active)
[6]
  EC50: 1.58 µM (active)

## CC(=O)C12CC(C)=C(C)CC1CC1C3CCC4=CC(=O)CCC4(C)C3CCC12C (centres undefined)
[11]
  AC50: 3.05 µM (active)
[12]
  EC50: 289 µM (inconclusive)
[15]
  AC50: 5.78 µM (active)

## N#Cc1cc2cc3c(cc2nc1N1CCCCC1)OCCO3
[4]
  EC50: 0.139 µM (active)
[5]
  EC50: 1.82 µM (active)
[6]
  EC50: 1.42 µM (active)

## CCn1c2ccccc2c2cnc(/N=C/N(C)C)c(C#N)c21
[1]
  CC50: 37 µM (active)
